Measured values from the supplement of paper PMC10307832.

Key:
Assay in all cases: relative viability (nuclei count vs DMSO), 5 days (fraction); higher = more cells survive
[1] = compound: COC1=C(C=C(C=C1)C2=CC3=NC=CN3C(=N2)NC4=C(C=CC=N4)C(=O)N)OC [BAY61-3606] + COc1cccc2cc(-c3nc([C@H]4CC[C@H](C(=O)O)CC4)n4ncnc(N)c34)[nH]c12 [OSI-027] (partner 0.5 µM)
How it was run: (§1)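 Values are medians from duplicate plates. Each reflects relative viability, defined as the nuclei count of treated wells over that of vehicle wells. Lung cancer cell lines in 1536-well plates were pin-tool dosed one day after seeding with one drug alone or with a fixed anchor-drug dose plus five library-drug doses (not always all listed) in √10 steps, then fixed, stained and imaged at 4× after 5 days.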

[2] = compound: COc1cccc2c1C(=O)c1c(O)c3c(c(O)c1C2=O)C[C@@](O)(C(=O)CO)C[C@@H]3O[C@H]1C[C@H](N)[C@H](O)[C@H](C)O1 [Doxorubicin] + CC1(C)CCC(c2ccc(Cl)cc2)=C(CN2CCN(c3ccc(C(=O)NS(=O)(=O)c4ccc(N[C@H](CCN5CCOCC5)CSc5ccccc5)c(S(=O)(=O)C(F)(F)F)c4)cc3)CC2)C1 [Navitoclax] (partner 0.5 µM)
How it was run: as §1

[3] = compound: COc1cccc2c1C(=O)c1c(O)c3c(c(O)c1C2=O)C[C@@](O)(C(=O)CO)C[C@@H]3O[C@H]1C[C@H](N)[C@H](O)[C@H](C)O1 [Doxorubicin] + CS(=O)(=O)CCNCc1ccc(-c2ccc3ncnc(Nc4ccc(OCc5cccc(F)c5)c(Cl)c4)c3c2)o1 [Lapatinib] (partner 2 µM)
How it was run: as §1

[4] = compound: COC1=C(C=C(C=C1)C2=CC3=NC=CN3C(=N2)NC4=C(C=CC=N4)C(=O)N)OC [BAY61-3606] + CC1(C)CCC(c2ccc(Cl)cc2)=C(CN2CCN(c3ccc(C(=O)NS(=O)(=O)c4ccc(N[C@H](CCN5CCOCC5)CSc5ccccc5)c(S(=O)(=O)C(F)(F)F)c4)cc3)CC2)C1 [Navitoclax] (partner 0.5 µM)
How it was run: as §1

## UMC-11
[1]; first compound 0.02 µM
  relative viability: 0.544
[1]; first compound 0.06325 µM
  relative viability: 0.467
[1]; first compound 0.2 µM
  relative viability: 0.476
[1]; first compound 0.6325 µM
  relative viability: 0.461
[1]; first compound 2 µM
  relative viability: 0.375
[2]; first compound 0.001 µM
  relative viability: 0.414
[2]; first compound 0.003162 µM
  relative viability: 0.306
[2]; first compound 0.01 µM
  relative viability: 0.323
[2]; first compound 0.03162 µM
  relative viability: 0.229
[2]; first compound 0.1 µM
  relative viability: 0.366
[3]; first compound 0.001 µM
  relative viability: 1.22
[3]; first compound 0.003162 µM
  relative viability: 1.13
[3]; first compound 0.01 µM
  relative viability: 0.906
[3]; first compound 0.03162 µM
  relative viability: 0.514
[3]; first compound 0.1 µM
  relative viability: 0.456
[4]; first compound 0.02 µM
  relative viability: 0.339
[4]; first compound 0.06325 µM
  relative viability: 0.324
[4]; first compound 0.2 µM
  relative viability: 0.309
[4]; first compound 0.6325 µM
  relative viability: 0.344
[4]; first compound 2 µM
  relative viability: 0.164
